Results: US20070122830A1, “Prohibitin-directed diagnostics and therapeutics for cancer and chemotherapeutic drug resistance” (Aurelium BioPharma Inc., priority 2005, published 2007)

Tested on: hematological tumor cells
Assay: Hematological tumor model in MHC-matched mice, prohibitin siRNA plus chemotherapy
Format: in vivo
Conditions: Example 8
Description: In order to determine whether targeting prohibitin is useful in treating a preexisting cancerous condition, MHC-matched mice, 5 to 7 weeks old, receive a subcutaneous (s.c.) injection of the cells 5×10^5 hematological tumor cells, and tumors are allowed to form. Tumor growth starting on the first day of treatment is measured by palpitation, and the volume of the xenograft is monitored every 4 days. Tumors are allowed to grow to a sufficient size (5.5 mm) for appropriate analysis of the effects of prohibitin treatment on tumor sensitivity to chemotherapeutic drugs. Mice are then treated with a prohibitin siRNA (3 μg daily for 16 days) designed to decrease the level of expression of prohibitin. […]
The animal's weight is measured every 4 days. Tumor growth starting on the first day of treatment is measured by palpitation and the volume of the xenograft is monitored every 4 days. […] Tumor tissue is excised from the mice and its weight is measured. […] Tumor cell count is determined by trypsinizing tumors in DMEM medium supplemented with 10% fetal bovine serum until cells are in free suspension. […]
Liposome formulations are produced as described previously (Shi et al. (2000) Proc. Natl. Acad. Sci. USA. 97(13): 7567-7572). […] The mean vesicle diameters are determined by quasielastic light scattering using a Microtrac Ultrafine Particle Analyzer (Leeds-Northrup, St. Petersburg, Fla.). […]

prohibitin siRNA: siRNA duplex to human prohibitin mRNA nt 425-443; sense 5′-GGAAGUGGUCUGUCUGUUAtt-3′, antisense 5′-UAACAGACAGACCACUUCCtt-3′ (sense GGAAGUGGUCUGUCUGUUATT; antisense UAACAGACAGACCACUUCCTT; chemistry not given here)
sensitivity of hematological tumors to chemotherapeutic drug treatment (siRNA 3 μg daily for 16 days with taxol or doxorubicin): increases the sensitivity
prognosis (tumor size, tumor cells) vs targeting agent only or drug only (siRNA plus taxol or doxorubicin): better prognosis (i.e., smaller tumor or fewer tumor cells)
